Experimental data: patent US20230165969A1, “PHARMACEUTICAL COMPOSITION COMPRISING ANTIBODY DRUG CONJUGATE AND USE THEREOF” (priority 2020, published 2023)

Test system: trastuzumab (Herceptin)-resistant human breast cancer cell strain JIMT-1 xenograft tumor
Assay: Drug efficacy on JIMT-1 tumor-bearing mice
Type: in vivo, nu/nu nude mice
Conditions: 10 mg/kg, two intraperitoneal injections, observation for 34 days
Protocol: The tumor volumes and body weights were measured twice a week and the results were recorded.

Substance: T-DM1
- tumor inhibition rate: no inhibition effect on tumors
